Like-named read-outs stand apart in the source and are kept apart here.
What was measured:
GSPT1 [1] = molecular target: T1, GSPT1 (Homo sapiens, UniProt P15170+Q96SW2); test: GSPT1 degradation immunofluorescence assay in CAL-51 cells; type: cell-based; design: endogenous in cells; host or cells: CAL-51 (DSMZ ACC302); details: 6 hours, Table 4, read-out: Activity for GSPT1 degradation, Code (DC50)
Protocol: CAL-51 cells were purchased from DSMZ (cat. Number ACC302), sub-cultured in 90% Dulbecco's MEM (4.5 g/L glucose, Gibco 11965)+10% heat inactivated FBS (BioConcept, 2-01F1361) and incubated at 37° C., 5% CO2. For the assay, imaging microtiterplate Cell Carrier 96 Ultra (Perkin Elmer 6055302) were pre-coated with Fibronectin (Sigma F085, 30 μl at 0.2 μg/ml) in PBS (100 μl, Gibco 14190) for 45 min at room temperature, rinsed with PBS and CAL-51 cells (30K cells/well) were plated and let to adhere overnight. Cells were treated with compounds typically using a serial dilution ranging from 30 μM to 0.1 nM for 6 hours. Compounds were stored at 10 mM DMSO stocks. Vehicle (DMSO), positive (CC-885, 10 μM) and rescue controls (positive control plus 0.2 μM bortezomib) were also included at this stage. Cells were subsequently rinsed with PBS and fixed in 10% Formalin solution (50 μl, Sigma HT5011)) for 20 mins at room temperature. Following three consecutive PBS washes (100 μl), cells were permeabilized in 0.1% Triton X-100 in PBS (Sigma 93443, 50 μl) for 15 mins at room temperature. Following three further PBS washes, 50 μl blocking buffer (1% BSA, Sigma A4503, in PBS) was added for 45 min for signal-to-noise reduction. Primary antibody (human GSPT1, Sigma HPA052488) was diluted in blocking buffer (dil. 1/300, 35 μl/well) and incubated with the cells overnight at 4° C. After three PBS washes, Alexa-fluor 488 coupled secondary antibodies (Invitrogen, A32731, dil. 1/1000), Alexa-fluor 647-Phalloidin (Invitrogen, A22287, dil. 1/200) and DAPI (Thermo, #62248, dil. 1/1000) were diluted in blocking buffer and incubated with the samples for 2 hours at room temperature. After three final PBS washes, samples were conserved in 100 μl PBS in the dark, until measurement. Image acquisition was performed on the Operetta High-Content Imager (Perkin-Elmer). Fluorescence intensity of Alexa-Fluor 488 (GSPT1), Alexa-Fluor 647 (Actin) and DAPI (Nucleus) were measured. For the determination of GSPT1 DC50 values, a custom algorithm implemented in the PerkinElmer image analysis software Harmony-Acapella® was developed. After user-defined setting of adjustment parameters, the analysis was run identically without human intervention for all image fields. DAPI staining of the nuclei was used to determine the location of cells using standard nuclei detection modules. Segmentation artifacts were removed by threshold-based filters for area, roundness and intensity. The outline of the cells was determined analogously from the sum of the normalized, smoothed DAPI and Actin channel, starting from each nucleus. The Alexa-Fluor 488 (GSPT1) signal intensity in each cell was finally measured, in order to obtain a Mean intensity per cell. GSPT1 degradation (DC50) was calculated after normalization to controls and data import in CDD vault Database, using non-linear regression.

[2] = tested on: HMEC engineered to express c-Myc tagged with EGFP; test: 3D spheroid assay, myc-HMEC (CellTiterGlo3D); type: cell-based; details: Homo sapiens
Protocol: (§1) Human mammary epithelial cells (HMEC) were engineered to express either c-Myc tagged with EGFP or EGFP alone (non myc) (analogous but distinct from Kessler J D et al, Science. 2012 Jan. 20; 335(6066):348-53. doi: 10.1126/science.1212728; Hsu T Y et al, Nature. 2015 Sep. 17; 525(7569):384-8. doi: 10.1038/nature14985). The engineered cells were seeded at 1000 (myc) or 4000 (non myc) cells/well in a 384 ultra-low attachment plate in a total volume of 40 μL HMEC cell culture media (DMEM/F12+10% HI-FBS+15 mM HEPES+0.5 ug/ml Hydrocortisone+10 ug/ml Insulin+20 ng/ml EGF). Plates were spun at 1200 rpm for 5 minutes at room temperature to ensure that cells have gathered in the middle of the well and incubated at 37° C. for 48 hrs before firing with compounds. On Day 2 (48 h post seeding) cells were imaged (brightfield and EGFP fluorescence) using the Celigo imaging cytometer prior to firing compounds. For primary screens, compounds were added at three concentrations (1.25, 10 and 30 uM) in a volume of 120 nL using the ECHO acoustic dispenser and spun at 2000 rpm for 2 minutes at room temperature before incubating at 37° C. for 5 days. […] On Day 7, prior to measuring cell viability using CellTiterGlo3D, cells were imaged (brightfield and EGFP fluorescence) on the Celigo imaging cytometer. The CellTiterGlo3D reagent is added at 30 uL/well and incubated at room temperature for 30 mins. After 30 mins of incubation, luminescence readings were recorded using the Perkin Elmer EnVision reader.

[3] = molecular target: T2, Full length wild-type cereblon CRBN (Homo sapiens, UniProt Q96SW2); test: Fluorescence polarization (FP) assay indicating cereblon binding; details: read-out: IC50 value
T2 construct: Full length wild-type cereblon CRBN (80.0 nM, 10 μL) was incubated in assay buffer
Outline: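 Full-length wild-type CRBN at 80.0 nM was preincubated 30 min at room temperature with compound (12-point curve, 300–0.937 or 3000–9.3 nM) in 20 mM HEPES pH 8.0, 150 NaCl, 0.5 mM TCEP, 0.05% Tween 20. Cy5-type thalidomide-based probe added at 5 nM final; FP read after 12 h (ex 590/em 675 nm), normalized to DMSO, IC50 fitted.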

[4] = tested on: HMEC engineered to express EGFP alone (non myc); test: 3D spheroid assay, non myc-HMEC (CellTiterGlo3D); type: cell-based; details: Homo sapiens, 120 h, 5 days, read-out: 3D spheroid assay Code (EC50, non myc-HMEC assay)
Protocol: as §1

GSPT1 [5] = molecular target: T1, GSPT1; test: GSPT1 degradation by Compound 345 in cancer cell lines (western blot); type: cell-based; design: endogenous in cells; host or cells: MM1 S (ATCC CRL-2974); details: Compound 345 treated NSCLC lines plus Bortezomib 0.2 μM
Protocol: NCI-H1155 and ABC-1 were taken as representative of N-Myc positive NSCLC. NCI-H2023 and NCI-H441 as of N-Myc low representatives. 10A: western blotting analysis performed after 6 (NCI-H1155 and ABC-1) or 24 hr (NCI-H2023 and NCI-H441) posttreatment. […] 10B: corresponding densitometry analyses of GSPT1 normalized to GAPDH. DC50 and Dmax as indicated.
NCI-H1155 and ABC-1 were taken as representative of N-Myc high NSCLC. NCI-H2023 and NCI-H441 as of N-Myc low representatives. Left: densitometry analysis of GSPT1 normalized to GAPDH from western blotting following treatment with Compound 345 (as indicated). Right: 72 hr viability assay following treatment with Compound 345 as assessed by Cell Titer Glo. For both the GSPT1 expression plot and the cell viability plot, two Myc-driven cancer cell lines are represented by upright triangles and diamonds. Two non-Myc-driven cancer cell lines are represented by upside down triangles and circles.
NCI-H1155 and NCI-H2023 were taken as representative of N-Myc high and low NSCLC. 12A: western blot analysis probing for GSPT1 and N-Myc following treatment with Compound 345 (as indicated). Tubulin was used as a loading control. N-Myc could not be detected by western blotting in the NCI-H2023 line. 12B: Single-sample gene set enrichment analysis (ssGSEA) results for a Myc target gene set at 6 hours (left) and 24 hours (right) after treatment. ssGSEA scores were normalized to DMSOs for each cell line and averaged for three replicates. Error bars denote+/−1 s.d. across replicates.
NCI-H1836 and NCI-H1876 were taken as two representatives of L-Myc high SCLC. Western blot analysis probing for GSPT1 and L-Myc following treatment with Compound 345 as indicated. GAPDH was used as a loading control.
FIGS. 16A, 16B and 16C: Activity of Compound 345 in the c-Myc high multiple myeloma MM1S cell line. […] GAPDH was used as a loading control. […] Lenalidomide was used as a benchmark. 16C: Antiproliferative activity of Compound 345 (as indicated) following treatment with Compound 345 for 72 hr as assessed by Cell Titer Glo assay.
(§2) FIGS. 18A, 18B and 18C: Activity of Compound 345 in the c-Myc high WSU-DLCL2 lymphoma cell line. […] GAPDH was used as a loading control. 18B: Antiproliferative activity of Compound 345 (as indicated) following treatment with Compound 345 for 72 hr as assessed by Cell Titer Glo assay. […] Mice were dosed daily PO with vehicle or Compound 345 at 3, 10 mg/kg (as indicated). Tumor volumes were measured twice weekly. X-axis represents the number of days for treatment duration; y-axis represents mean tumor volume (in mm^3)±SEM. CHOP was used as a positive control for this model. Drug-free vehicle is represented by black circles; CHOP combination represented by light squares; Compound 345 3 mg/kg represented by triangles; Compound 345 10 mg/kg represented by dark squares.
as §2, with “19A, 19B,” for “18A, 18B”, “19C:” for “18C:”, “DOHH-2” for “WSU-DLCL2”, “19B:” for “18B:”, “model.” for “model. Drug-free vehicle is represented by black circles; CHOP combination represented by light squares; Compound 345 3 mg/kg represented by triangles; Compound 345 10 mg/kg represented by dark squares.”
Western blot analysis performed 24 hr post treatment initiation. GAPDH was used as a loading control. GSPT1 DC50 and Dmax as indicated.

[6] = 120 h, myc-HMEC, 5 days, read-out: 3D spheroid assay Code (EC50, myc-HMEC assay)
[7] = bounds (codes D and E), read-out: EC50 value

T2 sequence (Q96SW2 whole entry): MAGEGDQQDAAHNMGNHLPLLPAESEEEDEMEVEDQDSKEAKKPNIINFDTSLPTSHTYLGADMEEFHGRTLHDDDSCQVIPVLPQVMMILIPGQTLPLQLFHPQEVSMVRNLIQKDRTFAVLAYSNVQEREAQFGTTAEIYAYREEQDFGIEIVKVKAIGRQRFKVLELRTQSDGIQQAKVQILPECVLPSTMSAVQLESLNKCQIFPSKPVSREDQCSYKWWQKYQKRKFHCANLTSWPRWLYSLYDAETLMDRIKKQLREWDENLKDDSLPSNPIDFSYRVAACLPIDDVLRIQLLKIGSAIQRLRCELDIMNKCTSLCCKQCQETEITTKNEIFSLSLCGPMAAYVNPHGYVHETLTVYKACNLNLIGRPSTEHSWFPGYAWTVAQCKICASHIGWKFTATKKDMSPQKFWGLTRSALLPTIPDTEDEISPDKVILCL
T1 sequence (P15170 whole entry): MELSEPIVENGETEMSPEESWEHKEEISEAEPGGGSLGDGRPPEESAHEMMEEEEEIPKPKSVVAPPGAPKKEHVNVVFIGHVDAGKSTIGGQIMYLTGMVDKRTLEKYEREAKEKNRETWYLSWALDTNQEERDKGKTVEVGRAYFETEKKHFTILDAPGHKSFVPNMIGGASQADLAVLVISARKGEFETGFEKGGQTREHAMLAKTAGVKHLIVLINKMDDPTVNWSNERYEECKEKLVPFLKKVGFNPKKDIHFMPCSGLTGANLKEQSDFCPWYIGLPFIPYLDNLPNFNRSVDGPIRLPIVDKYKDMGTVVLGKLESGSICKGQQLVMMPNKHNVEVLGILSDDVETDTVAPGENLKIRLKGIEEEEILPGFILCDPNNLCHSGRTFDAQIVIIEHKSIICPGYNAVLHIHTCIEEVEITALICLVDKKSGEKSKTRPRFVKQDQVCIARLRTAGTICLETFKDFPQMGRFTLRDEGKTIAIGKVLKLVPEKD
T1 sequence (Q96SW2 whole entry): as the sequence (Q96SW2 whole entry) above
T1 sequence (Q16531 whole entry partner): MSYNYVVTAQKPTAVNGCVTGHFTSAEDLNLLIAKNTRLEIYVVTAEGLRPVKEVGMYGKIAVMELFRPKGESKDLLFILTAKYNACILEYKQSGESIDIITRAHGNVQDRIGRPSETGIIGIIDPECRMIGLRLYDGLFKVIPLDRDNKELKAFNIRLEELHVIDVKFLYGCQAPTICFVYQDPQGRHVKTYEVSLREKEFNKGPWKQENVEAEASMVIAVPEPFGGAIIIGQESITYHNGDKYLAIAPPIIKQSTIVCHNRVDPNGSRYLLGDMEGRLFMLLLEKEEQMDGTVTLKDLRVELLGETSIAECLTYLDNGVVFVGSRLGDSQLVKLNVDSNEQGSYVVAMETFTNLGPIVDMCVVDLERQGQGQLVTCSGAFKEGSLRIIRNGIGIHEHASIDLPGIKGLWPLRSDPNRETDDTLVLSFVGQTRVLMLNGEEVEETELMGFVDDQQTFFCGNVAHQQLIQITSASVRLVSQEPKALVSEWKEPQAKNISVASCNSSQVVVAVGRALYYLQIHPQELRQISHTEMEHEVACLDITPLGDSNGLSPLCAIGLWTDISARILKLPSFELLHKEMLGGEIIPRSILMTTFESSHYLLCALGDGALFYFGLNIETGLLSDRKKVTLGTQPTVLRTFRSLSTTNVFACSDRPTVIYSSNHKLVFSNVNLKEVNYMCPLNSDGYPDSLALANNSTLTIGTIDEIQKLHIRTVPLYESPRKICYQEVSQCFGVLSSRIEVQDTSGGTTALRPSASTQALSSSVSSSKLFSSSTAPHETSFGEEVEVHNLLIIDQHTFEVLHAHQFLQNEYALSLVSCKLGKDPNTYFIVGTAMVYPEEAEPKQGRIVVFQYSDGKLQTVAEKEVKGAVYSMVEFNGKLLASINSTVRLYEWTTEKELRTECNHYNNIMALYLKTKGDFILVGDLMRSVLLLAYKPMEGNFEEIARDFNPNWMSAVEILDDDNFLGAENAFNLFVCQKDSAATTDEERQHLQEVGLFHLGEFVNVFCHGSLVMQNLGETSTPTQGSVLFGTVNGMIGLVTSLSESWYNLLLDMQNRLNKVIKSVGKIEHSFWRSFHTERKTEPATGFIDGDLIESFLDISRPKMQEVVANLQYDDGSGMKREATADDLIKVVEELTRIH

Structure (SMILES) | DC50 (GSPT1 [1]) | IC50 ([3]; bound stated) | IC50 ([3]; bounds stated) | GSPT1 level with proteasome inhibitor added (GSPT1 [5]) | EC50 [2, 6] | EC50 [4] | EC50 [2, 7]
CC(C)C[C@H](NC(=O)[C@H](Cc1ccccc1)NC(=O)c1cnccn1)B(O)O [Bortezomib, reference compound] |  |  |  | rescued GSPT1 from degradation |  |  | 
Cc1cc(C)cc(NC(=O)NCc2ccc3c(c2)C(=O)N(C2CCC(=O)NC2=O)C3)c1 (stereo not drawn) [Compound 20] |  |  | < 0.6 µM |  |  |  | ≤ 2 µM
O=C1CCC(N2Cc3ccc(CNC(=O)Nc4ccc(Cl)c(Cl)c4)cc3C2=O)C(=O)N1 (stereo not drawn) [Compound 46] |  |  | < 0.6 µM |  |  |  | ≤ 2 µM

Continued, in another order:

DC50 (GSPT1 [1]) | IC50 ([3]; bound stated) | IC50 ([3]; bounds stated) | GSPT1 level with proteasome inhibitor added (GSPT1 [5]) | Structure (SMILES) | EC50 [2, 6] | EC50 [4] | EC50 [2, 7]
> 0.3 µM | < 1.1 µM | < 0.6 µM |  | O=C1CCC(N2Cc3ccc(CNC(=O)Nc4ccc(Br)cc4)cc3C2=O)C(=O)N1 (stereo not drawn) [Compound 9] | > 2 µM | > 10 µM | 
 |  | < 0.6 µM |  | COc1ccccc1CNC(=O)NCc1ccc2c(c1)C(=O)N(C1CCC(=O)NC1=O)C2 (stereo not drawn) [Compound 60] | > 2 µM | > 10 µM | 
 |  | < 0.6 µM |  | COc1ccc(CCNC(=O)NCc2ccc3c(c2)C(=O)N(C2CCC(=O)NC2=O)C3)cc1 (stereo not drawn) [Compound 51] | > 2 µM | > 10 µM | 
 |  | < 0.6 µM |  | COc1ccc(NC(=O)NCc2ccc3c(c2)C(=O)N(C2CCC(=O)NC2=O)C3)cc1Cl (stereo not drawn) [Compound 59] |  |  | ≤ 2 µM

Reference: US20240261274A1, “TREATMENT OF MYC-DRIVEN CANCERS WITH GSPT1 DEGRADERS” (MONTE ROSA THERAPEUTICS, INC., priority 2021, published 2024)
